Values quoted from earlier work in US12576017B2, “Sunscreen composition with enhanced photoprotection” (Edgewell Personal Care Brands, LLC, priority 2021, dated 2026).

Conditions: lipid/water partition

First: COc1ccc(C(=O)c2ccccc2)c(O)c1 [Benzophenone-3, 2-hydroxy-4-methoxybenzophenone]
Second: COc1ccc(C(=O)c2ccccc2O)c(O)c1 [Benzophenone-8, 2,2′-dihydroxy-4-methoxybenzophenone]
The “Log P @25° C.” value of the first is higher: 2.63 for the first, 2.15 for the second.

Compared with `COc1cc(O)c(C(=O)c2ccccc2)cc1S(=O)(=O)O` [Benzophenone-4, 2-hydroxy-4-methoxybenzophenone-5-sulfonic acid], `CCCCC(CC)COC(=O)c1ccccc1O` (stereo not shown) [Octyl salicylate, 2-Ethylhexyl salicylate] is higher in “Log P @25° C.” value: −1.51 for the first, 5.30 for the second.

Going from `CCOCCOC(=O)/C=C/c1ccc(OC)cc1` [Cinoxate, Ethoxyethyl methoxy cinnamate] to `CCCCC(CC)COC(=O)C=Cc1ccc(OC)cc1` (stereo not shown) [Octyl methoxy cinnamate, Ethylhexyl-p-methoxy cinnamate], the “Log P @25° C.” value rises from 2.55 to 5.65.

Compared with `CCOC(=O)c1ccc(N(CC(C)O)CC(C)O)cc1` (stereo not shown) [Ethyl dihydroxypropyl PABA, Ethyl-4-bis(2-hydroxypropyl-aminobenzoate)], `CCCCC(CC)COC(=O)c1ccc(N(C)C)cc1` (stereo not shown) [Octyl dimethyl PABA, 2-Ethylhexyl-p-dimethyl aminobenzoate] is higher in “Log P @25° C.” value: 2.84 for the first, 6.08 for the second.

Going from `Nc1ccc(C(=O)OCC(O)CO)cc1` (stereo not shown) [Glyceryl PABA, 1,2,3-Propanetriol,1-(4-aminobenzoate)] to `Nc1ccc(C(=O)O)cc1` [PABA, p-Amino benzoic acid], the “Log P @25° C.” value rises from −0.02 to 0.74.

Going from `CC1CC(OC(=O)c2ccccc2O)CC(C)(C)C1` (stereo not shown) [Homosalate, Homomenthyl salicylate] to `CC1CCC(C(C)C)C(OC(=O)c2ccccc2N)C1` (stereo not shown) [Menthyl anthranilate, Menthyl-O aminobenzoate], the “Log P @25° C.” value falls from 5.61 to 5.05.

In the case of `CCCCC(CC)COC(=O)C(C#N)=C(c1ccccc1)c1ccccc1` (stereo not shown) [Octocrylene, Octyl cyanodiphenylacrylate], the “Log P @25° C.” value is given as 5.69.
